Assay results as given in ChEMBL document CHEMBL3407408, “Design and synthesis of a new class of cryptophycins based tubulin inhibitors” (Eur J Med Chem, 2015).
Active and inactive are the calls of the source. The calls are words filed in the database; no cut-off is given here.

Assays:
[1] = Cytotoxicity against human PC3 cells after 48 hrs by MTT assay; format: functional, cell-based; conditions: PC-3, 48 h
A549 [2] = assay: cells; conditions: Homo sapiens, A549, 48 h
Description: Cytotoxicity against human A549 cells after 48 hrs by MTT assay

HeLa = assay: cells; conditions: Homo sapiens, 48 h
Description: Cytotoxicity against human HeLa cells after 48 hrs by MTT assay

[3] = Cytotoxicity against human FR2 cells after 48 hrs by MTT assay; format: cell-based; conditions: FR2, 48 h
A549 [4] = assay: Cell cycle arrest in human A549 cells assessed as accumulation at G2/M phase at 1 uM by propidium iodide staining-based flow cytometric analysis (reference value: 5%); format: functional
A549 [5] = assay: Induction of apoptosis in human A549 cells assessed as shrinkage of cell size at 10 to 30 uM after 24 hrs by phase contrast microscopic analysis; format: functional, cell-based
A549 [6] = assay: Cell cycle arrest in human A549 cells assessed as accumulation at G1 phase at 30 uM after 24 hrs by propidium iodide staining-based flow cytometric analysis (reference value: 69%); format: functional
A549 [7] = assay: Cell cycle arrest in human A549 cells assessed as accumulation at G1 phase at 10 uM after 24 hrs by propidium iodide staining-based flow cytometric analysis (reference value: 69%); format: functional
A549 [8] = assay: Cell cycle arrest in human A549 cells assessed as accumulation at sub-G0 phase at 10 uM after 24 hrs by propidium iodide staining-based flow cytometric analysis (reference value: 5%); format: functional
A549 [9] = assay: Cell cycle arrest in human A549 cells assessed as accumulation at G2/M phase at 30 uM after 24 hrs by propidium iodide staining-based flow cytometric analysis (reference value: 5%); format: functional
A549 [10] = assay: Downregulation of beta-tubulin protein expression in human A549 cells at 10 to 30 uM after 24 hrs by Western blot analysis; format: functional, cell-based
A549 [11] = assay: Cell cycle arrest in human A549 cells assessed as accumulation at sub-G0 phase at 30 uM after 24 hrs by propidium iodide staining-based flow cytometric analysis (reference value: 5%); format: functional
A549 [12] = assay: Cell cycle arrest in human A549 cells assessed as accumulation at G2/M phase at 10 uM after 24 hrs by propidium iodide staining-based flow cytometric analysis (reference value: 5%); format: functional
A549 [13] = assay: Induction of apoptosis in human A549 cells assessed as cellular blebs at 10 to 30 uM after 24 hrs by phase contrast microscopic analysis; format: functional, cell-based
A549 [14] = assay: Cell cycle arrest in human A549 cells assessed as increase in hypo diploid sub-G0 DNA fraction after 24 hrs by propidium iodide staining-based flow cytometric analysis; format: functional
A549 [15] = assay: Cell cycle arrest in human A549 cells assessed as accumulation at S phase at 30 uM after 24 hrs by propidium iodide staining-based flow cytometric analysis (reference value: 26%); format: functional
A549 [16] = assay: Cell cycle arrest in human A549 cells assessed as accumulation at S phase at 10 uM after 24 hrs by propidium iodide staining-based flow cytometric analysis (reference value: 26%); format: functional
A549 [17] = assay: Downregulation of alpha-tubulin protein expression in human A549 cells at 10 to 30 uM after 24 hrs by Western blot analysis; format: functional, cell-based
A549 [18] = assay: Induction of apoptosis in human A549 cells assessed as […] at 10 to 30 uM after 24 hrs by phase contrast microscopic analysis; format: functional, cell-based
A549 [19] = assay: Induction of apoptosis in human A549 cells assessed as formation of multiple apoptotic bodies at 10 to 30 uM after 24 hrs by Hoechst 33258 staining-based inverted fluorescence microscopic analysis; format: functional, cell-based

IC50 (A549 [2])	IC50 (HeLa)	SMILES	IC50 [1]	IC50 [3]	further results
> 100 µM	> 100 µM	COc1ccc(C[C@H]2NC(=O)/C=C/C[C@@H](c3cccc([N+](=O)[O-])c3)OC(=O)[C@H](CC(C)C)OC(=O)CCNC2=O)cc1	> 100 µM	> 100 µM	
90 µM	35 µM	COc1ccc(C[C@@H]2NC(=O)/C=C/C[C@@H](c3cccc([N+](=O)[O-])c3)OC(=O)[C@H](CC(C)C)OC(=O)CCNC2=O)cc1	100 µM	93 µM	
10 µM	28 µM	COc1ccc(C[C@H]2NC(=O)/C=C/C[C@@H](c3ccc([N+](=O)[O-])cc3)OC(=O)[C@H](CC(C)C)OC(=O)CCNC2=O)cc1	15 µM	97 µM	Activity (A549 [5]): Active; Activity (A549 [6]): 62%; Activity (A549 [7]): 59%; Activity (A549 [8]): 11%; Activity (A549 [9]): 8%; Activity (A549 [10]): Active; Activity (A549 [11]): 26%; Activity (A549 [12]): 6%; Activity (A549 [13]): Active; Activity (A549 [14]): Dose-dependent effect; Activity (A549 [15]): 30%; Activity (A549 [16]): 35%; Activity (A549 [17]): Active; Activity (A549 [18]): Active; Activity (A549 [19]): Active
60 µM	55 µM	COc1ccc(C[C@H]2NC(=O)/C=C/C[C@@H](c3ccc(Br)cc3)OC(=O)[C@H](CC(C)C)OC(=O)CCNC2=O)cc1	60 µM	87 µM	
56 µM	60 µM	COc1ccc(C[C@@H]2NC(=O)/C=C/C[C@@H](c3ccc(Br)cc3)OC(=O)[C@H](CC(C)C)OC(=O)CCNC2=O)cc1	68 µM	> 100 µM	
11 µM	40 µM	COc1ccc(C[C@@H]2NC(=O)/C=C/C[C@@H](c3ccc([N+](=O)[O-])cc3)OC(=O)[C@H](CC(C)C)OC(=O)CCNC2=O)cc1	70 µM	78 µM	Activity (A549 [5]): Active; Activity (A549 [6]): 80%; Activity (A549 [7]): 65%; Activity (A549 [8]): 19%; Activity (A549 [9]): 19%; Activity (A549 [10]): Active; Activity (A549 [11]): 49%; Activity (A549 [12]): 10%; Activity (A549 [13]): Active; Activity (A549 [14]): Dose-dependent effect; Activity (A549 [15]): 1%; Activity (A549 [16]): 25%; Activity (A549 [17]): Active; Activity (A549 [18]): Active; Activity (A549 [19]): Active
100 µM	90 µM	COc1ccc(C[C@H]2NC(=O)/C=C/C[C@@H](c3ccc(Cl)cc3Cl)OC(=O)[C@H](CC(C)C)OC(=O)CCNC2=O)cc1	100 µM	> 100 µM	

Continued, compound first:

SMILES	IC50 (A549 [2])	IC50 (HeLa)	IC50 [1]	IC50 [3]	further results
COc1ccc(C[C@@H]2NC(=O)/C=C/C[C@@H](c3ccccc3[N+](=O)[O-])OC(=O)[C@H](CC(C)C)OC(=O)CCNC2=O)cc1	13 µM	47 µM	100 µM	90 µM	
COc1ccc(C[C@H]2NC(=O)/C=C/C[C@@H](c3c(F)c(F)c(F)c(F)c3F)OC(=O)[C@H](CC(C)C)OC(=O)CCNC2=O)cc1	30 µM	78 µM	70 µM	> 100 µM	
COc1ccc(C[C@H]2NC(=O)/C=C/C[C@@H](c3ccccc3[N+](=O)[O-])OC(=O)[C@H](CC(C)C)OC(=O)CCNC2=O)cc1	15 µM	29 µM	67 µM	> 100 µM	
COc1ccc(C[C@@H]2NC(=O)/C=C/C[C@@H](c3ccc(Cl)cc3Cl)OC(=O)[C@H](CC(C)C)OC(=O)CCNC2=O)cc1	45 µM	33 µM	32 µM	> 100 µM	
CC(=O)O[C@H]1C(=O)[C@@]2(C)[C@H]([C@H](OC(=O)c3ccccc3)[C@]3(O)C[C@H](OC(=O)[C@H](O)[C@@H](NC(=O)c4ccccc4)c4ccccc4)C(C)=C1C3(C)C)[C@]1(OC(C)=O)CO[C@@H]1C[C@@H]2O [PACLITAXEL]	0.025 µM		0.012 µM	16 µM	Activity (A549 [4]): 45%
COc1ccc(C[C@@H]2NC(=O)/C=C/C[C@@H](c3c(F)c(F)c(F)c(F)c3F)OC(=O)[C@H](CC(C)C)OC(=O)CCNC2=O)cc1	> 100 µM	100 µM	100 µM	79 µM	
